We go through seven molecules from patent US20240425523A1, “Compounds for the Degradation of EGFR Kinase” (Beigene Switzerland GMBH, priority 2023, published 2024).

Type in all cases: cell-based
For experiment [1], the target named is T1, EGFR L858R (BaF3-L858R cells) (Homo sapiens, UniProt P00533, L858R).
T1 construct: host or cells: BaF3
The experiment is described as follows: Cell degradation of EGFR, HTRF assay, BaF3-L858R cells. The settings on record: 16 h treatment; for DC50: EGFR degradation; for Dmax: maximum percentage of degradation. An outline of the steps:
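BaF3-L858R cells treated 16 h at 37° C, 5% CO2 with compound (top 10 uM final, 5-fold, 8 doses, 0.1% DMSO). DC50 from four-parameter fit; Dmax is maximum percent degradation.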
On the technique in general: In TR-FRET formats the signal depends on donor and acceptor labels being close together.

For experiment [2], the target named is T2, EGFR-L858R/C797S (H1975-clone #8 cells) (Homo sapiens, UniProt P00533, C797S/L858R).
T2 construct: expressed in transfected cells; host or cells: H1975 (endogenous EGFR knocked out, clone #8)
The experiment is described as follows: Cell degradation of EGFR, HTRF assay, H1975-clone#8 (L858R/C797S) cells. The settings on record: 16 h treatment; for DC50: EGFR degradation; for Dmax: maximum percentage of degradation.

For experiment [3], the target named is T3, p-EGFR L858R (BaF3-L858R cells) (Homo sapiens, UniProt P00533, L858R).
T3 construct: host or cells: BaF3
The experiment is described as follows: Cell p-EGFR inhibition assay, HTRF, BaF3-L858R cells. The note with it: 16 h treatment; for Imax (%): maximum percentage of pEGFR inhibition; for IC50: pEGFR inhibition. In a few lines: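 BaF3-L858R cells treated 16 h at 37 °C, 5% CO2 with compound from 10 uM top, 5-fold dilutions, 8 doses, in 0.1% DMSO medium. Lysates read overnight by HTRF p-EGFR antibodies; IC50 fitted to four-parameter curve against DMSO high control.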

Experiment [4] concerns the target p-EGFR Del19/C797S (H1975-clone #23 cells) (Homo sapiens, UniProt P00533). The experiment is described as follows: Cell p-EGFR inhibition assay, HTRF, H1975-clone#23 (DEL19/C797S) cells. The settings on record: 16 h treatment; for Imax (%): maximum percentage of pEGFR inhibition; for IC50: pEGFR inhibition. In a few lines:
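Phospho-EGFR read by overnight HTRF on lysates, normalized to DMSO-treated high control; IC50, Hill slope and Imax fitted. Compounds were applied for 16 h (10 uM top, 5-fold steps, 8 doses) to an H1975 single clone carrying only exogenous Del19/C797S EGFR after sgRNA knockout of endogenous copies.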

In experiment [1], `Cc1cc2cc(n1)-c1c(C)nn(C)c1OC[C@H]1CC[C@H](C1)CN1/C(=N/C2=O)Nc2ccc(N3CCN([C@H]4CCN(c5cnc(C6CCC(=O)NC6=O)cc5C)CC4(F)F)CC3)cc21` (stereo partly drawn) [Example 101, 3-(5-((S)-3,3-difluoro-4-(4-((7^1R,7^3S,E)-1^1,1^3,2^6-trimethyl-3-oxo-5^2,5^3-dihydro-1^1H,5^1H-9-oxa-4-aza-5(2,1)-benzo[d]imidazola-2(2,4)-pyridina-1(4,5)-pyrazola-7(1,3)-cyclopentanacyclononaphane-5^6-yl)piperazin-1-yl)piperidin-1-yl)-4-methylpyridin-2-yl)piperidine-2,6-dione] gave a DC50 of 2.22 nM and a Dmax of 81.8%. In addition, in experiment [2], half-maximal degradation (DC50) was put at 1.58 nM and the Dmax is 90.2%. In addition, in experiment [3], the “Imax (%)” value turned out to be 106.4% and half-maximal inhibition (IC50) was put at 3.5 nM. Besides, in experiment [4], the “Imax (%)” value was determined as 101% and the midpoint of inhibition, the IC50, lay at 1 nM.

In experiment [1], `Cc1cc2cc(n1)-c1cnn(C)c1OC[C@H]1CCC(C1)CN1/C(=N/C2=O)Nc2ccc(N3CCN(C4(CO)CCN(c5ccc(C6CCC(=O)NC6=O)nc5C)CC4)CC3)cc21` (some centres unmarked) [Example 114, 3-(5-(4-(4-((7^1R,7^3S,E)-1^1,2^6-dimethyl-3-oxo-5^2,5^3-dihydro-1^1H,5^1H-9-oxa-4-aza-5(2,1)-benzo[d]imidazola-2(2,4)-pyridina-1(4,5)-pyrazola-7(1,3)-cyclopentanacyclononaphane-5^6-yl)piperazin-1-yl)-4-(hydroxymethyl)piperidin-1-yl)-6-methylpyridin-2-yl)piperidine-2,6-dione] showed a DC50 of 3.11 nM and a Dmax of 75.7%. Further, in experiment [2], it took 1.09 nM to reach half-maximal degradation (DC50) and the Dmax was found to be 82%. Moreover, in experiment [3], the “Imax (%)” value is given as 98.4% and the midpoint of inhibition, the IC50, lay at 7.3 nM. Besides, in experiment [4], the “Imax (%)” value is 100.5% and the midpoint of inhibition, the IC50, lay at 0.4 nM.

In experiment [1], `Cc1cc2cc(n1)-c1c(C)nn(C)c1OC[C@H]1CC[C@H](C1)CN1/C(=N/C2=O)Nc2ccc(N3CCC(N4CCC(Nc5cc(F)c([C@H]6CCC(=O)NC6=O)c(F)c5)CC4)CC3)cc21` (single isomer, unassigned) [Example 213] gave a 50% degradation concentration (DC50) of 2.18 nM and a Dmax of 88.3%. Further, in experiment [2], half-maximal degradation (DC50) was put at 0.63 nM and the greatest degradation seen (Dmax) amounted to 82.5%. Besides, in experiment [3], the “Imax (%)” value is given as 88.33% and inhibition was half-maximal at 0.871 nM (IC50). Further, in experiment [4], the “Imax (%)” value is recorded as 98.77% and it took 1.69 nM to reach half-maximal inhibition (IC50).

Turning to `COC[C@H]1CN(c2ccc3c(c2)N2C[C@@H]4CC[C@H](COc5c(c(C)nn5C)-c5cc(cc(C)n5)C(=O)/N=C/2N3)C4)CCN1C1CN(C2CCN(c3cc(F)c([C@H]4CCC(=O)NC4=O)c(F)c3)CC2)C1` [Example 206, (R)-3-(2,6-difluoro-4-(4-(3-((R)-2-(methoxymethyl)-4-((7R,7^3S,E)-1^1,1^32^6-trimethyl-3-oxo-5^2,5^3-dihydro-1^1H,5^1H-9-oxa-4-aza-5(2,1)-benzo[d]imidazola-2(2,4)-pyridina-1(4,5)-pyrazola-7(1,3)-cyclopentanacyclononaphane-5^6-yl)piperazin-1-yl)azetidin-1-yl)piperidin-1-yl)phenyl)piperidine-2,6-dione], in experiment [1], half-maximal degradation (DC50) was put at 1.1 nM and the Dmax is 92.1%. Besides, in experiment [2], half-maximal degradation (DC50) was put at 0.54 nM and the greatest degradation seen (Dmax) worked out at 90.7%. Also, in experiment [3], the “Imax (%)” value worked out at 94.08% and the IC50 was 1.17 nM. Moreover, in experiment [4], the “Imax (%)” value was 99.52% and the IC50 was 0.851 nM.

In experiment [1], `COC[C@H]1CN(c2ccc3c(c2)N2C[C@@H]4CC[C@H](COc5c(cnn5C)-c5cc(cc(C)n5)C(=O)/N=C/2N3)C4)CCN1C1CCN(c2ccc(C3CCC(=O)NC3=O)nc2C)CC1` (stereo partly drawn) [Example 65, 3-(5-(4-((R)-4-((7^1R,7^3S,E)-1^1,2^6-dimethyl-3-oxo-5^2,5^3-dihydro-1^1H,5^1H-9-oxa-4-aza-5(2,1)-benzo[d]imidazola-2(2,4)-pyridina-1(4,5)-pyrazola-7(1,3)-cyclopentanacyclononaphane-5^6-yl)-2-(methoxymethyl)piperazin-1-yl)piperidin-1-yl)-6-methylpyridin-2-yl)piperidine-2,6-dione] registered a DC50 of 0.94 nM and a Dmax of 88.7%. In experiment [2], half-maximal degradation (DC50) was put at 0.87 nM and the Dmax came out at 78.6%. Besides, in experiment [3], the “Imax (%)” value is 103% and the midpoint of inhibition, the IC50, lay at 2.8 nM. In experiment [4], the “Imax (%)” value came out at 101.5% and 0.3 nM corresponded to half-maximal inhibition (IC50).

`COC[C@H]1CN(c2ccc3c(c2)N2C[C@@H]4CC[C@H](COc5c(cnn5C)-c5cc(cc(C)n5)C(=O)/N=C/2N3)C4)CCN1C1CN(C2CCN(c3cc(F)c([C@H]4CCC(=O)NC4=O)c(F)c3)CC2)C1` [Example 208, (R)-3-(4-(4-(3-((R)-4-((7^1R,7^3S,E)-1^1,2^6-dimethyl-3-oxo-5^2,5^3-dihydro-1^1H,5^1H-9-oxa-4-aza-5(2,1)-benzo[d]imidazola-2(2,4)-pyridina-1(4,5)-pyrazola-7(1,3)-cyclopentanacyclononaphane-5^6-yl)-2-(methoxymethyl)piperazin-1-yl)azetidin-1-yl)piperidin-1-yl)-2,6-difluorophenyl)piperidine-2,6-dione]: in experiment [1], half-maximal degradation (DC50) was put at 0.67 nM and the Dmax is 91.6%. For the same molecule, in experiment [2], the DC50 was found to be 1.01 nM and the Dmax was determined as 70.7%. In addition, in experiment [3], the “Imax (%)” value is 91.5% and the IC50 was 1.21 nM. In experiment [4], the “Imax (%)” value is recorded as 99.76% and 3.02 nM corresponded to half-maximal inhibition (IC50).

In experiment [1], `Cc1cc2cc(n1)-c1c(C)nn(C)c1OC[C@H]1CC[C@H](C1)CN1/C(=N/C2=O)Nc2ccc(N3CCN(C4CCN(c5cc(F)c([C@H]6CCC(=O)NC6=O)c(F)c5)CC4)C[C@@H]3C)cc21` [Example 195, (R)-3-(2,6-difluoro-4-(4-((S)-3-methyl-4-((7^1R,7^3S,E)-1^1,1^3,2^6-trimethyl-3-oxo-5^2,5^3-dihydro-1^1H,5^1H-9-oxa-4-aza-5(2,1)-benzo[d]imidazola-2(2,4)-pyridina-1(4,5)-pyrazola-7(1,3)-cyclopentanacyclononaphane-5^6-yl)piperazin-1-yl)piperidin-1-yl)phenyl)piperidine-2,6-dione] showed a DC50 of 1.83 nM and a Dmax of 90.9%. In experiment [2], this molecule had a DC50 of 1.13 nM and a maximal degradation (Dmax) of 93.9%. Besides, in experiment [3], the “Imax (%)” value was determined as 90.34% and the IC50 was less than 0.128 nM. In experiment [4], the “Imax (%)” value turned out to be 99.96% and the IC50 was 1.44 nM.

Usually DC50 stands for the concentration giving 50% degradation. A high value points to degradation only at high concentration. Usually Dmax stands for the greatest extent of degradation seen. By IC50 is commonly meant the concentration that gives 50% inhibition. Lower therefore signals greater potency.
